Results: US6447748B1, “Benzamide compounds for cancer imaging and therapy” (Research Corporation Technologies, Inc., priority 1993, dated 2002)
Where “and” joins values, the source holds several entries; their conditions need not be identical. Equal entries are not always repeated. Blank lines part the entries; values can stand above or below the molecule they belong to.

Legend:
[1] = Biodistribution of 2-[125I]BP and 3-[125I]BP in Sprague Dawley rats; format: in vivo; conditions: for Biodistribution Blood / Biodistribution Brain / Biodistribution Heart / Biodistribution Kidney / Biodistribution Liver / Biodistribution Lung / Biodistribution Muscle / Biodistribution Spleen / Biodistribution Thyroid: average of four rats
Experimental: A similar procedure was performed with 2-[^125I]BP and 3-[^125I]BP but blood samples were only collected at 1, 6 and 24 hours.

[2] = test system: human A2058 melanoma xenografts; test: Biodistribution in nude mice xenografted with human melanotic melanoma; format: in vivo, Balb/c nu/nu mice; conditions: for RATIO Tumor/Blood / RATIO Tumor/Muscle / Biodistribution Blood / Biodistribution Bone / Biodistribution Brain / Biodistribution Heart / Biodistribution Intestine / Biodistribution Kidney / Biodistribution Liver / Biodistribution Lung / Biodistribution Muscle / Biodistribution Spleen / Biodistribution Stomach / Biodistribution Thyroid / Biodistribution Tumor: nude mice, human melanotic melanoma, mean (std. dev.); for Biodistribution Blood / Biodistribution Bone / Biodistribution Brain / Biodistribution Heart / Biodistribution Intestine / Biodistribution Kidney / Biodistribution Liver / Biodistribution Lung / Biodistribution Muscle / Biodistribution Spleen / Biodistribution Stomach / Biodistribution Thyroid / Biodistribution Tumor: n = 6
Experimental: A2058 tumor cells, derived from a brain metastasis of human malignant melanoma (Todaro et al. 1980 Proc. Natl. Acad. Sci. USA 77:5258) were obtained from the National Institutes of Health. […] Suspension of 5×10^6 cells (viability greater than 95%) in 0.2 mL of medium were inoculated subcutaneously in female Balb/c nu/nu mice. After about two weeks, solid tumors of about 1 cm in diameter appeared in approximately 85% of all inoculated mice. […] Balb/c nu/nu mice (17-22 g) were injected intravenously with 0.2 ml of a saline solution containing [^125I]PAB (5-6 μCi). […] The values obtained were normalized to a mouse weighing 20 g. The differences between [^125I]PAB and [^125I]DAB were examined by Student's unpaired t tests.

[3] = test system: human squamous cell carcinoma xenografts; test: Biodistribution in nude mice xenografted with human squamous cell carcinoma; format: in vivo, Balb/c nu/nu mice; conditions: for Biodistribution Blood / Biodistribution Bone / Biodistribution Brain / Biodistribution Heart / Biodistribution Intestine / Biodistribution Kidney / Biodistribution Liver / Biodistribution Lung / Biodistribution Spleen / Biodistribution Stomach / Biodistribution Thyroid / Biodistribution Tumor: nude mice, human squamous cell carcinoma, mean (std. dev.), n = 6
Experimental: Non-small cell lung carcinoma cell lines NCI-157, NCI-838 and NCI-1299 were obtained from the National Cancer Institute. The NCI-157 cell line is a squamous carcinoma cell line, while NCI-838 is an adenocarcinoma cell line and NCI-1299 is a large cell lung carcinoma cell. […] Suspension of 5×10^6 cells (viability greater than 95%) in 0.2 mL of medium were inoculated subcutaneously in female Balb/c nu/nu mice. After about two weeks, solid tumors of about 1 cm in diameter appeared in approximately 85% of all inoculated mice. […] Balb/c nu/nu mice (17-22 g) were injected intravenously with 0.2 ml of a saline solution containing [^125I]PAB (5-6 μCi). […] The values obtained were normalized to a mouse weighing 20 g.

clearance [1]: fast clearance from the blood
Biodistribution Brain ([1]; 1 hr.): 0.61 ± 0.04 % ID/whole organ
Biodistribution Heart ([1]; 1 hr.): 0.15 ± 0.01 % ID/whole organ
Biodistribution Kidney ([1]; 1 hr.): 3.49 ± 0.23 % ID/whole organ
Biodistribution Liver ([1]; 1 hr.): 13.35 ± 0.62 % ID/whole organ
Biodistribution Lung ([1]; 1 hr.): 0.82 ± 0.07 % ID/whole organ
Biodistribution Muscle ([1]; 1 hr.): 9.36 ± 0.58 % ID/whole organ
Biodistribution Spleen ([1]; 1 hr.): 0.47 ± 0.02 % ID/whole organ
Biodistribution Thyroid ([1]; 1 hr.): 0.13 ± 0.02 % ID/whole organ
Biodistribution Blood ([1]; 6 hr.): 0.55 ± 0.13 % ID/whole organ
Biodistribution Brain ([1]; 6 hr.): 0.53 ± 0.26 % ID/whole organ
Biodistribution Heart ([1]; 6 hr.): 0.07 ± 0.01 % ID/whole organ
Biodistribution Kidney ([1]; 6 hr.): 2.25 ± 0.16 % ID/whole organ
Biodistribution Liver ([1]; 6 hr.): 9.06 ± 0.71 % ID/whole organ
Biodistribution Lung ([1]; 6 hr.): 0.43 ± 0.05 % ID/whole organ
Biodistribution Muscle ([1]; 6 hr.): 1.23 ± 0.49 % ID/whole organ
Biodistribution Spleen ([1]; 6 hr.): 0.37 ± 0.05 % ID/whole organ
Biodistribution Thyroid ([1]; 6 hr.): 0.53 ± 0.26 % ID/whole organ
Biodistribution Blood ([1]; 24 hr.): 0.52 ± 0.05 % ID/whole organ
Biodistribution Brain ([1]; 24 hr.): 0.81 ± 0.07 % ID/whole organ
Biodistribution Heart ([1]; 24 hr.): 0.15 ± 0.01 % ID/whole organ
Biodistribution Kidney ([1]; 24 hr.): 1.75 ± 0.13 % ID/whole organ
Biodistribution Liver ([1]; 24 hr.): 6.65 ± 1.63 % ID/whole organ
Biodistribution Lung ([1]; 24 hr.): 1.05 ± 0.04 % ID/whole organ
Biodistribution Muscle ([1]; 24 hr.): 03.7 ± 0.44 % ID/whole organ
Biodistribution Spleen ([1]; 24 hr.): 0.65 ± 0.08 % ID/whole organ
Biodistribution Thyroid ([1]; 24 hr.): 3.43 ± 0.21 % ID/whole organ
SMILES: O=C(NC1CCN(Cc2ccccc2)CC1)c1cccc([125I])c1 [3-[^125I]BP, ^125I-(N-Benzylpiperidin-4-yl)-3-iodobenzamide]
Biodistribution Blood ([1]; 1 hr.): 0.75 % ID/whole organ and 0.75 ± 0.05 % ID/whole organ

RATIO Tumor/Blood ([2]; 1 Hour): 4.16 (1.09)
RATIO Tumor/Muscle ([2]; 1 Hour): 7.16 (1.50)
Biodistribution Blood ([2]; 1 Hour): 0.967 (.168) % ID/g
Biodistribution Bone ([2]; 1 Hour): 0.750 (.0663) % ID/g
Biodistribution Brain ([2]; 1 Hour): 0.895 (.0887) % ID/g
Biodistribution Heart ([2]; 1 Hour): 1.14 (.207) % ID/g
Biodistribution Intestine ([2]; 1 Hour): 10.64 (.541) % ID/g
Biodistribution Kidney ([2]; 1 Hour): 3.82 (.561) % ID/g
Biodistribution Liver ([2]; 1 Hour): 6.36 (.770) % ID/g
Biodistribution Lung ([2]; 1 Hour): 2.34 (.277) % ID/g
Biodistribution Muscle ([2]; 1 Hour): 0.552 (.0711) % ID/g
Biodistribution Spleen ([2]; 1 Hour): 3.11 (.789) % ID/g
Biodistribution Stomach ([2]; 1 Hour): 3.23 (.697) % ID/g
Biodistribution Thyroid ([2]; 1 Hour): 4.23 (.594) % ID/g
Biodistribution Tumor ([2]; 1 Hour): 3.87 (.470) % ID/g
RATIO Tumor/Blood ([2]; 6 Hour): 14.9 (5.07)
RATIO Tumor/Muscle ([2]; 6 Hour): 32.5 (12.0)
Biodistribution Blood ([2]; 6 Hour): 0.208 (.0542) % ID/g
Biodistribution Bone ([2]; 6 Hour): 0.115 (.0236) % ID/g
Biodistribution Brain ([2]; 6 Hour): 0.122 (.0331) % ID/g
Biodistribution Heart ([2]; 6 Hour): 0.167 (.0372) % ID/g
Biodistribution Intestine ([2]; 6 Hour): 2.46 (1.18) % ID/g
Biodistribution Kidney ([2]; 6 Hour): 0.483 (.131) % ID/g
Biodistribution Liver ([2]; 6 Hour): 1.16 (.212) % ID/g
Biodistribution Lung ([2]; 6 Hour): 0.387 (.0568) % ID/g
Biodistribution Muscle ([2]; 6 Hour): 0.0983 (.0306) % ID/g
Biodistribution Spleen ([2]; 6 Hour): 0.330 (.105) % ID/g
Biodistribution Stomach ([2]; 6 Hour): 0.757 (.298) % ID/g
Biodistribution Thyroid ([2]; 6 Hour): 0.583 (.203) % ID/g
Biodistribution Tumor ([2]; 6 Hour): 2.91 (.463) % ID/g
RATIO Tumor/Blood ([2]; 24 Hour): 17.8 (6.10)
RATIO Tumor/Muscle ([2]; 24 Hour): 94.5 (32.5)
Biodistribution Blood ([2]; 24 Hour): 0.0617 (.018) % ID/g
Biodistribution Bone ([2]; 24 Hour): 0.0133 (.0052) % ID/g
Biodistribution Brain ([2]; 24 Hour): 0.0067 (.0052) % ID/g
Biodistribution Heart ([2]; 24 Hour): 0.0283 (.0075) % ID/g
Biodistribution Intestine ([2]; 24 Hour): 0.132 (.0852) % ID/g
Biodistribution Kidney ([2]; 24 Hour): 0.0850 (.016) % ID/g
Biodistribution Liver ([2]; 24 Hour): 0.263 (.0216) % ID/g
Biodistribution Lung ([2]; 24 Hour): 0.0717 (.0075) % ID/g
Biodistribution Muscle ([2]; 24 Hour): 0.0117 (.0041) % ID/g
Biodistribution Spleen ([2]; 24 Hour): 0.0383 (.015) % ID/g
Biodistribution Stomach ([2]; 24 Hour): 0.130 (0.881) % ID/g
Biodistribution Thyroid ([2]; 24 Hour): 0.100 (.143) % ID/g
Biodistribution Tumor ([2]; 24 Hour): 1.028 (.239) % ID/g
amount in tumors relative to livers ([2]; 24 hrs., melanoma xenograft): about four-fold
tumor concentration relative to that of [125I]DAB ([2]; 24 hrs., melanoma xenograft): twice
Biodistribution Blood ([3]; 1 hr.): 1.99 (0.35) % ID/g
Biodistribution Bone ([3]; 1 hr.): 2.03 (0.28) % ID/g
Biodistribution Brain ([3]; 1 hr.): 1.80 (0.17) % ID/g
Biodistribution Heart ([3]; 1 hr.): 2.25 (0.07) % ID/g
Biodistribution Intestine ([3]; 1 hr.): 12.63 (0.43) % ID/g
Biodistribution Kidney ([3]; 1 hr.): 6.56 (0.04) % ID/g
Biodistribution Liver ([3]; 1 hr.): 10.48 (1.26) % ID/g
Biodistribution Lung ([3]; 1 hr.): 4.91 (0.25) % ID/g
Biodistribution Spleen ([3]; 1 hr.): 3.97 (0.18) % ID/g
Biodistribution Stomach ([3]; 1 hr.): 5.57 (1.31) % ID/g
Biodistribution Thyroid ([3]; 1 hr.): 7.84 (0.91) % ID/g
Biodistribution Tumor ([3]; 1 hr.): 4.27 (0.40) % ID/g
Biodistribution Blood ([3]; 6 hr.): 0.51 (0.03) % ID/g
Biodistribution Bone ([3]; 6 hr.): 0.56 (0.18) % ID/g
Biodistribution Brain ([3]; 6 hr.): 0.29 (0.01) % ID/g
Biodistribution Heart ([3]; 6 hr.): 0.49 (0.03) % ID/g
Biodistribution Intestine ([3]; 6 hr.): 11.41 (0.52) % ID/g
Biodistribution Kidney ([3]; 6 hr.): 1.61 (0.28) % ID/g
Biodistribution Liver ([3]; 6 hr.): 3.47 (0.23) % ID/g
Biodistribution Lung ([3]; 6 hr.): 1.10 (0.03) % ID/g
Biodistribution Spleen ([3]; 6 hr.): 0.86 (0.20) % ID/g
Biodistribution Stomach ([3]; 6 hr.): 3.46 (0.18) % ID/g
Biodistribution Thyroid ([3]; 6 hr.): 2.80 (0.49) % ID/g
Biodistribution Tumor ([3]; 6 hr.): 3.27 (0.33) % ID/g
Biodistribution Blood ([3]; 24 hr.): 0.15 (0.07) % ID/g
Biodistribution Bone ([3]; 24 hr.): 0.02 (0.00) % ID/g
Biodistribution Brain ([3]; 24 hr.): 0.01 (0.00) % ID/g
Biodistribution Heart ([3]; 24 hr.): 0.03 (0.00) % ID/g
Biodistribution Intestine ([3]; 24 hr.): 0.38 (0.09) % ID/g
Biodistribution Kidney ([3]; 24 hr.): 0.13 (0.00) % ID/g
Biodistribution Liver ([3]; 24 hr.): 0.39 (0.02) % ID/g
Biodistribution Lung ([3]; 24 hr.): 0.08 (0.00) % ID/g
Biodistribution Spleen ([3]; 24 hr.): 0.05 (0.00) % ID/g
Biodistribution Stomach ([3]; 24 hr.): 0.20 (0.03) % ID/g
Biodistribution Thyroid ([3]; 24 hr.): 0.09 (0.01) % ID/g
Biodistribution Tumor ([3]; 24 hr.): 0.66 (0.12) % ID/g
tumor concentration relative to that of [125I]DAB ([3]; 24 hrs. post-injection, squamous cell carcinoma xenograft): more than three-fold
SMILES: O=C(NCCN1CCCCC1)c1ccc([125I])cc1 [[^125I]PAB, ^125I(2-piperidinylaminoethyl)4-iodobenzamide]
